# Data as given in publication PMC5870190, “A three-in-one-bullet for oesophageal cancer: replication fork collapse, spindle attachment failure and enhanced radiosensitivity generated by a ruthenium(II) metallo-intercalator” (Chemical Science, 2017).
# Key:
# Type in all cases: cell-based, human
# OE21 cells [1] = experiment: Cell-cycle analysis by flow cytometry; details: OE21, 20 μM, 24 h
# Experimental: phototoxic contribution to bio-activity. Doxorubicin (Sigma) was prepared in doubly-distilled water (10 mg/mL, 17.4 mM).
# [Ru(phen)2(dppz)]2+ (2 mM) was prepared in doubly-distilled water.
# Sub-cellular fractionation. OE21 or OE33 cells were treated in 12 well plates, washed with cold PBS (2x2 mls) and nuclear and cytosol fractions obtained using the Nuclei EZ Lysis kit (Sigma). Briefly, cells were washed with acidified PBS (pH 2.5) to remove the membrane-bound fraction and 0.4 ml EZ lysis buffer was added. Cells were detached by scraping, collected into eppendorfs, vortexed briefly and left for 5 minutes on ice. Samples were centrifuged (500g, 5 mins) and the supernatant (cytosol fraction) aspirated. The pellet (nuclear fraction) was re-suspended in 200 µl RIPA buffer. […] Ruthenium content was determined by ICP-MS analysis as described in a recent […]
# DNA fibre assay. […] CldU- and IdU-labelled tracts were visualised using a Leica DMRB microscope with a DFC360FX camera and tract length measured by ImageJ software. […]
# Western blotting. […] Protein content was determined by BCA assay. […]
# AnnexinV staining. […] This was incubated for 15 mins at room temperature, 400 µl binding buffer added and analysed by flow cytometry (FL1 and FL3 channels for FITC and PI respectively). […]
# FLO-1 cells = experiment: Micronuclei formation, FLO-1; details: FLO-1, 44 μM Ru1, 24 h incubation
# Experimental: Microscopy and immunofluorescence. Cells were seeded on ibidi 35 mm µ-dishes (Thistle Scientific), allowed to adhere for 24 h and treated as stated in the main text. Cell media was removed, cells washed with PBS and fixed with formaldehyde (4%, 10 mins). Cells were permeablised with Triton (0.5% in PBS, 5 mins) and washed with PBS. Samples were blocked with BSA (3% in PBS-T) for 1 h before incubation with primary antibody (either anti-α-tubulin or anti-γ H2AX, 1/500 dilution) in BSA (3% in PBS-T) for 1 h. Samples were washed 3x in PBS-T and incubated with Alexa Fluor-conjugated secondary antibodies (3% in PBS-T, 1 h, 1/250 dilution). After further washing (3x5 min PBS-T) samples were co-stained with DAPI (5 ng/ml, 2 min), fresh PBS added and visualised by confocal microscopy. Samples were visualised using a Zeiss LSM 780 or LSM 710 inverted confocal microscope and EC Plan-Neofluar 40x/1.30 Oil objectives. […]
# For the determination of mutation induction, from the untreated and each treated condition, 2x10^5 cells were plated in 10 x 100 mm dishes in selective media (regular media
# OE21 cells [2] = experiment: Clonogenic survival assay with IR, OE21; details: Ru1 2 μM or Cis 500 nM for 24 h before IR
# Experimental: Clonogenic survival assay. OE21, OE33 or FLO1 cells were treated with 2 µM Ru1 for 24 h before irradiation with 0-8 Gy using a 137Cs γ-irradiator (IBL637, CIS Bio Int.; dose rate = 0.809 Gy min−1). 1 h after irradiation, cells were detached using Trypsin and re-seeded in 6 well plates at a density of 300 – 20,000 cells/well in triplicate in an incrementally greater number of cells with increasing IR dose to ensure adequate colony formation. Cells were incubated for 7–14 days after re-seeding to allow colony formation before being fixed with 10% methanol, 10% acetic acid and stained with 0.4% methylene blue. OE33 cells required an additional formaldehyde fixation (4% in PBS, 5 mins) step before the addition of methylene blue solution or colony detachment occurred. Colonies containing 50 cells or greater were counted using a Gelcount instrument and accompanying software (Oxford Optronix). Plating efficiencies were determined for each treatment condition and normalised to an untreated control to provide the surviving fraction (S. F.). S.F. versus radiation dose curves were plotted in GraphPad Prism and fit using a second order polynomial function (R2 values > 0.99). Dose modifying factors (DMF) at a SF=0.1 were calculated using the equation: Dose modifying factor (DMF) = IR dose to give S.F. 0.1/IR dose plus compound to give S.F.0.1. […]
substance,measurement,setting,value
[Ru(phen)2(tpphz)]^2+ [Ru1],increase in G2/M phase cells compared to control,OE21 cells [1],two-fold
same,"Cells with micronuclei, Percentage",FLO-1 cells,3.3%
same,S.F.,"OE21 cells [2]; OE21, IR 0 Gy",1.062
same,S.F.,"OE21 cells [2]; OE21, IR 2 Gy",0.801
same,S.F.,"OE21 cells [2]; OE21, IR 4 Gy",0.410
same,S.F.,"OE21 cells [2]; OE21, IR 6 Gy",0.152
same,S.F.,"OE21 cells [2]; OE21, IR 8 Gy",0.062
